Assay results from US7531318B2, “Screening of agents for activity against ischemic myocardial insults” (priority 2004, dated 2009).

What was measured:
[1] = tested on: E11.5 cardiac outflow tract explants (myocardial cells); assay: Collagen gel migration assay, embryonic heart explant: myocardial cell migration and beating; assay type: cell-based, mouse
Procedure: Collagen gel migration assay. Outflow tract was dissected from E11.5 wild-type mouse embryos and placed on collagen matrices as previously described (Runyan and Markwald, 1983. After 10 h of attachment explants were incubated in 30 ng per 300 μl thymosin β4 in PBS, PBS alone or thymosin β4 and 100 nM wortmannin. Cultures were carried out for 3-9 days at 37° C. 5% CO2 and fixed in 4% paraformaldehyde in PBS for 10 min at room temperature. Cells were counted for quantification of migration and distance using at least three separate explants under each condition for endothelial migration and eight separate explants for myocardial migration.
(§1) Immunocytochemistry on collagen gel explants. Paraformaldehyde-fixed explants were permeabilized for 10 min at room temperature with Permeabilize solution (10 mM PIPES pH 6.8; 50 mM NaCl, 0.5% Triton X-100, 300 mM sucrose, 3 mM MgCl2) and rinsed with PBS twice for 5 min each at room temperature. After a series of blocking and rinsing steps, detection antibodies were used and explants rinsed and incubated with equilibration buffer (Anti-Fade kit) for 10 min at room temperature. Explants were scooped to a glass microscope slide, covered and examined by fluorescein microscopy. TUNEL assay was performed using ApopTag plus fluorescein in situ apoptosis detection kit (Intergen Company S7111) as recommended.
To test the effects of secreted thymosin β4 on cardiac cell migration, the inventors used an embryonic heart explant system designed to assay cell migration and transformation on a collagen gel (Runyan and Markwald, 1983).
To determine whether activation of ILK was necessary for the observed effects of thymosin β4, the inventors used a well-described ILK inhibitor, wortmannin, which inhibits ILK's upstream kinase, phosphatidylinositol-3-OH kinase (PI(3)K) (Delcommenne et al., 1998). Using myocardial cell migration and beating frequency as assays for thymosin β4 activity, the inventors cultured embryonic heart explants as described above in the presence of thymosin β4 with or without wortmannin.

[2] = tested on: rat neonatal cardiomyocytes; assay: Primary neonatal cardiomyocyte culture on laminin-coated glass: migration, survival, beating; assay type: cell-based
Description: To test the response of postnatal cardiomyocytes, the inventors cultured primary rat neonatal cardiomyocytes on laminin-coated glass and treated the cells with phosphate-buffered saline (PBS) or thymosin β4.
Primary culture of neonatal cardiomyocytes typically survives for approximately 1 to 2 weeks, with some cells beating for up to 2 weeks when grown on laminin-coated slides in our laboratory. […] In addition, the rate of beating was consistently faster in thymosin-β4-treated neonatal cardiomyocytes (95 versus 50 beats per minute, P<0.02), indicating either a change in cell-cell communication or cell metabolism (FIG. 2M; see also Supplementary FIGS. 1A-I and 2A-M).

PINCH = target: T1, PINCH (Mus musculus, UniProt Q99JW4); assay: Phage display, ELISA and co-immunoprecipitation of thymosin β4 interacting proteins: PINCH; assay type: binding
T1 construct: Myc or Flag (co-immunoprecipitation part only); expressed in transfected cells; host or cells: Cos and 10T1/2 cells (co-IP); T7Select10-3 phage displaying mouse embryonic heart cDNA (phage display / ELISA)
T1 sequence (Q99JW4 whole entry): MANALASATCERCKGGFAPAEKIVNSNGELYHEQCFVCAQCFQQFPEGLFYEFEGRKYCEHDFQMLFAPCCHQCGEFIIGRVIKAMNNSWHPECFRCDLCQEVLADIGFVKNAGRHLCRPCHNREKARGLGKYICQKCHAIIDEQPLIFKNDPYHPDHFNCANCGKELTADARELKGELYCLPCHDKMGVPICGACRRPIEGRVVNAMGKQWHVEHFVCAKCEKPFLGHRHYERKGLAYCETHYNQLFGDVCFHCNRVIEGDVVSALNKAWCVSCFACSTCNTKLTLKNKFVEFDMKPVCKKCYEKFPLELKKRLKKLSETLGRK
Description: Embryonic T7 phage display cDNA library and phage biopanning. Equal amounts of messenger RNA were isolated and purified from E9.5-E12.5 mouse embryonic hearts by using Straight A's mRNA Isolation System (Novagen). cDNA was synthesized by using T7Select10-3 OrientExpress cDNA Random Primer Cloning System (Novagen). The vector T7Select10-3 was used to display random-primed cDNA at the C terminus of 5-15 phage 10B coat protein molecules. 10^9 plaque-forming units of the T7 phage embryonic heart library (100× of the complexity) in 500 μl of PBST was applied to a column of Affi-gel bound to thymosin β4 to achieve low-stringency biopanning to identify thymosin β4 interacting partners. See Supplementary Methods for details of phage packaging, phage biopanning and ELISA confirmation.
(§2) Co-immunoprecipitation. Cos and 10T1/2 cells were transfected with thymosin β4, PINCH and/or ILK and lysates precipitated with antibodies to each as previously described (Garg et al., 2003). Western blots were performed using anti-ILK polyclonal antibody (Santa Cruz), anti-thymosin β4 polyclonal antibody (Yu et al., 1993) (gift of H. Yin) and anti-Myc or anti-Flag antibody against tagged versions of PINCH.
Thymosin β4 activates ILK and Akt. […]

ILK = target: T2, ILK (Homo sapiens, UniProt Q13418); assay: Co-immunoprecipitation of thymosin β4 with ILK; assay type: binding
T2 construct: expressed in transfected cells; host or cells: Cos and 10T1/2 cells
T2 sequence (Q13418 1-452): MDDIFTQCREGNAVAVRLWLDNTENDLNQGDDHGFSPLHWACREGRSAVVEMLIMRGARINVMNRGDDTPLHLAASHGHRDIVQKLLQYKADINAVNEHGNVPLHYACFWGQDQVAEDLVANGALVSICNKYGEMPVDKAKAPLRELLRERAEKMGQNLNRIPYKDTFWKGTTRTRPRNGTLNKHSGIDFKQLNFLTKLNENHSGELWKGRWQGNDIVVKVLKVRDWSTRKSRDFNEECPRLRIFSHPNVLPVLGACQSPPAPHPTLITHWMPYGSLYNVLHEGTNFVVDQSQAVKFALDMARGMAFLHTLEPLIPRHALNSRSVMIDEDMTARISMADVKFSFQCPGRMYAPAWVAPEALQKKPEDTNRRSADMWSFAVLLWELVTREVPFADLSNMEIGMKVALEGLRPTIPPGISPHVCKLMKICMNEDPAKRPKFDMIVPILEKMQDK
Procedure: as §2
Thymosin β4 activates ILK and Akt. To investigate the potential mechanisms through which thymosin β4 might be influencing cell migration and survival events, the inventors searched for thymosin β4 interacting proteins. The amino terminus of thymosin β4 was fused with affi-gel beads resulting in exposure of the C-terminus, which allowed identification of previously unknown interacting proteins but prohibited association with actin. The inventors synthesized and screened an E9.5-E12.5 mouse heart T7 phage complementary DNA library by phage display, and thymosin-β4-interacting clones were enriched and confirmed by enzyme-linked immunosorbent assay (ELISA, FIG. 3A). […] PINCH and ILK interact directly with one another and indirectly with the actin cytoskeleton as part of a larger complex involved in cell-extracellular matrix interactions known as the focal adhesion complex. […]

[3] = tested on: ILK, Akt (serine 473) in C2C12 myoblasts and embryonic heart explants; assay: ILK localization/expression and Akt phosphorylation by immunocytochemistry and western blot; assay type: cell-based
Procedure: as §1
Because recruitment of ILK to the focal adhesion complex is important for its activation, the inventors assayed the effects of thymosin β4 on ILK localization and expression. […] Because thymosin β4 sequesters the pool of G-actin monomers, the inventors asked whether the effects on ILK activation were dependent on the role of thymosin β4 in regulating the balance between polymerized F-actin and monomeric G-actin.

[4] = tested on: C57BL/6J mice after ligation of the left anterior descending coronary artery; assay: Myocardial infarction by coronary artery ligation: echocardiography, scar, TUNEL; assay type: in vivo, mouse
Description: Immunohistochemistry. Embryonic or adult cardiac tissue was embedded in paraffin and sections used for immunohistochemistry. […] Adult hearts were sectioned at ten equivalent levels from the base of the heart to the apex. Serial sections were used for trichrome sections and reaction with muscle actin, c-kit, Sca-1, Abcg2 and BrdU antibodies and for TUNEL assay (Intergen Company S7111).
(§3) Animals and surgical procedures. Myocardial infarction was produced in 58 male C57BL/6J mice at 16 weeks of age (25-30 g) by ligation of the left anterior descending coronary artery as previously described (Garner et al., 2003). All animal protocols were reviewed and approved by the University of Texas Southwestern Medical Center Institutional Animal Care Advisory Committee and were in compliance with the rules governing animal use as published by the NIH. Twenty-nine of the ligated mice received thymosin β4 treatment immediately after ligation and the remaining 29 received PBS injections. Treatment was given intracardiac with thymosin β4 (200 ng in 10 μl collagen) or with 10 μl of collagen; intraperitoneally with thymosin β4 (150 μg in 300 μl PBS) or with 300 μl of PBS; or by both intracardiac and intraperitoneal injections. Intraperitoneal injections were given every 3 days until mice were killed. Doses were based on previous studies of thymosin β4 biodistribution (Mora et al., 1997). Hearts were removed, weighed and fixed for histological sectioning. Additional mice were operated on in a similar fashion for studies 0.5, 1, 3, 6 and 11 days after ligation.
Analysis of cardiac function by echocardiography. Echocardiograms to assess systolic function were performed using M-mode and two-dimensional measurements as described previously (Garner et al., 2003). The measurements represented the average of six selected cardiac cycles from at least two separate scans performed in random-blind fashion with papillary muscles used as a point of reference for consistency in level of scan. End diastole was defined as the maximal left ventricle diastolic dimension and end systole was defined as the peak of posterior wall motion. Single outliers in each group were omitted for statistical analysis. Fractional shortening (FS), a surrogate of systolic function, was calculated from left ventricle dimensions as follows: FS=((EDD−ESD)/EDD)×100%. Ejection fraction (EF) was calculated from two-dimensional images.
Calculation of scar volume. Scar volume was calculated using six sections through the heart of each mouse using Openlab 3.03 software (Improvision) similar to that previously described (Balsam et al., 2004). Percent area of collagen deposition was measured on each section in a blinded fashion and averaged for each mouse.
Statistical analyses. Statistical calculations were performed using a standard t-test of variables with 95% confidence intervals.
Thymosin β4 promotes cell survival after myocardial infarction and improves cardiac function. Because of the effects of thymosin β4 on cardiac cells in vitro, the inventors tested whether thymosin β4 might aid in cardiac repair in vivo after myocardial damage. The inventors created myocardial infarctions in 58 adult mice by coronary artery ligation and treated half with systemic, intracardiac, or systemic plus intracardiac thymosin β4 immediately after ligation and the other half with PBS (FIGS. 4A-E). All 45 mice that survived 2 weeks later were interrogated for cardiac function by random-blind ultrasonography at 2 and 4 weeks after infarction by multiple measurements of cardiac contraction (FIGS. 4A-D).
TUNEL-positive cells that were also myocytes were rare in the thymosin β4 group but abundant in the control hearts. […] Thus, the decreased scar volume and preserved function of thymosin-β4-treated mice were probably due to early preservation of myocardium after infarction through the effects of thymosin β4 on survival of cardiomyocytes.

[5] = tested on: ILK, phosphorylated Akt-S 473; assay: Western blot on heart lysates after coronary ligation; assay type: in vivo, mouse
Description: as §3
Similar to cultured cells, the level of ILK protein was increased in heart lysates of mice treated with thymosin β4 after coronary ligation compared with PBS-treated mice (FIG. 5N).

[6] = compared to control cells, data not shown

Question: What does the source list for thymosin β4?
Answer: myocardial cell migration away from the explant ([1]; E11.5 outflow tract explants on collagen, 30 ng per 300 μl thymosin β4 vs PBS, P<0.0001): large number of spontaneously beating, cardiac muscle actin-positive cells that migrated away from the explant; cell death of migrating cells (TUNEL assay) [1, 6]: No significant difference; proliferative rate of migrating cells (phospho-histone H3 immunostaining) [1, 6]: No significant difference; time for which rhythmically contracting myocytes were visible ([2]; controls beat for up to 2 weeks): up to 28 days; survival of neonatal cardiomyocytes in primary culture ([2]; controls typically survive approximately 1 to 2 weeks): survived significantly longer; migrational distance of neonatal cardiomyocytes ([2]; laminin-coated glass, vs PBS control, P<0.05): significantly increased; rate of beating ([2]; versus 50 in control, P<0.02): 95 beats per minute; interaction with PINCH (phage display, ELISA) (PINCH; in the absence of actin, N-terminus fused to affi-gel beads): interacted; co-precipitation with PINCH (PINCH; transfected cultured cells): co-precipitated; strength of interaction of ILK with thymosin β4 in the common complex (ILK; immunoprecipitation of PINCH, ILK and thymosin β4): weaker than with PINCH; co-precipitation with ILK (ILK; transfected cultured cells): co-precipitated; ILK protein levels (western) ([3]; C2C12 cells): modest increase; total Akt protein ([3]; C2C12 cells): unchanged; phosphorylation of Akt at serine 473 ([3]; C2C12 cells, phospho-specific antibody): increased phosphorylation; ILK detection around the cell edges by immunocytochemistry ([3]; embryonic heart explants or C2C12 myoblasts, synthetic protein 10 ng per 100 μl or expressing plasmid): markedly enhanced; cardiomyocyte proliferation or death ([4]; 3, 6, 11 or 14 days after coronary ligation, data not shown): did not detect significant; cell death by TUNEL assay in cardiomyocytes ([4]; 24 h after ligation): marked decrease; TUNEL-positive cells that were also myocytes ([4]; 24 h after ligation, abundant in control hearts): rare; ejection fraction ([4]; 3 days after infarction, intracardiac treatment, control 44.7±8.4%, P<0.02): 64.2±6.69%; left ventricle fractional shortening ([4]; 3 days after infarction, intracardiac treatment, n=4, 95% confidence interval, control 28.8±2.26%, P<0.02): 39.2±2.34%; cardiac dilation (end diastolic and end systolic dimensions) ([4]; after infarction, EDD and ESD significantly higher in control group): decreased cardiac dilation; mean ejection fraction ([4]; four weeks after coronary ligation, n=23, 95% confidence interval, control 28.2±2.5%, P<0.0001): 57.7±3.2%; mean left ventricular fractional shortening ([4]; four weeks after infarction, n=23, 95% confidence intervals, control 23.2±1.2%, P<0.0001): 37.2±1.8%; scar volume ([4]; six levels of sections through left ventricle, subset of mice, P<0.05): significant reduction; degree of functional improvement, intraperitoneal versus intracardiac administration ([4]; systemic i.p. 150 μg vs local 200 ng within the infarct): not statistically different; size of scar (trichrome stain) ([4]; three levels of section, all treated mice): reduced; number of c-kit, Sca-1 or Abcg2 positive cardiomyocytes ([4]; treated vs untreated hearts, data not shown): failed to detect any differences; size of scar, systemic versus local delivery ([4]; trichrome stain): not different; improvement in cardiac fractional shortening ([4]; versus control, four weeks): greater than 60%; improvement in ejection fraction ([4]; versus control, four weeks): > 100%; level of ILK protein in heart lysates ([5]; compared with PBS-treated mice): increased; amount of phosphorylated Akt-S 473 in heart lysates ([5]; phospho-specific antibodies): elevation

Question: With C3 transferase [reference compound] as the substance, how does the “effect on thymosin β4-induced ILK activation” value ([3]; COS1 or C2C12 cells, F-actin polymerization inhibited, data not shown) read?
Answer: The value was “neither intervention affected the ILK activation”.
